ChEMBL document CHEMBL1134255, “Synthesis and evaluation of efavirenz (Sustiva) analogues as HIV-1 reverse transcriptase inhibitors: replacement of the cyclopropylacetylene side chain” (2001)

Experiments:
[1] = system: Human immunodeficiency virus 1; experiment: Antiviral activity was evaluated against wild-type HIV-1 virus; assay type: functional
[2] = system: Human immunodeficiency virus type 1 reverse transcriptase (Human immunodeficiency virus 1), Q72547 [K103N]

Row | SMILES | IC90 [1] [nM] | IC90 [2] [nM]
1 | O=C1Nc2ccc(F)c(F)c2C(C#Cc2ccccn2)(C(F)(F)F)O1 (stereo not drawn) | 6.78 | –
2 | C=CCOC1(C(F)(F)F)OC(=O)Nc2ccc(Cl)cc21 (stereo not drawn) | 3.9 | –
3 | O=C1Nc2ccc(Cl)cc2C(C#Cc2cccnc2)(C(F)(F)F)O1 (stereo not drawn) | 3.97 | 145
4 | N#CCCOC1(C(F)(F)F)OC(=O)Nc2ccc(Cl)cc21 (stereo not drawn) | > 1500 | –
5 | O=C1Nc2ccc(Cl)cc2C(OCCC2CC2)(C(F)(F)F)O1 (stereo not drawn) | 8.04 | –
6 | O=C1Nc2ccc(F)c(F)c2C(C#Cc2ccoc2)(C(F)(F)F)O1 (stereo not drawn) | 3.21 | 280
7 | C=CCCOC1(C(F)(F)F)OC(=O)Nc2ccc(Cl)cc21 (stereo not drawn) | 13.7 | –
8 | O=C1Nc2ccc(F)cc2C(C#Cc2cccs2)(C(F)(F)F)O1 (stereo not drawn) | 2.93 | –
9 | CC(C)CCOC1(C(F)(F)F)OC(=O)Nc2ccc(Cl)cc21 (stereo not drawn) | 10.1 | 286
10 | C/C=C/COC1(C(F)(F)F)OC(=O)Nc2ccc(F)cc21 (stereo not drawn) | 8.85 | 1150
11 | O=C1Nc2ccc(Cl)cc2C(C#Cc2ccoc2)(C(F)(F)F)O1 (stereo not drawn) | 3.8 | 322
12 | CC#CCOC1(C(F)(F)F)OC(=O)Nc2ccc(Cl)cc21 (stereo not drawn) | 3.13 | 310
13 | O=C1Nc2ccc(F)c(F)c2C(C#Cc2cccs2)(C(F)(F)F)O1 (stereo not drawn) | 2.23 | 156
14 | O=C1Nc2ccc(Cl)cc2C(C#Cc2ccco2)(C(F)(F)F)O1 (stereo not drawn) | 3.8 | 152
15 | O=C1Nc2ccc(Cl)cc2C(OCc2cccnc2)(C(F)(F)F)O1 (stereo not drawn) | 75.3 | –
16 | CC(C)=CCOC1(C(F)(F)F)OC(=O)Nc2ccc(F)c(F)c21 (stereo not drawn) | 1.54 | 65
17 | CCCOC1(C(F)(F)F)OC(=O)Nc2ccc(Cl)cc21 (stereo not drawn) | 5.81 | –
18 | O=C1Nc2ccc(F)c(F)c2C(C#Cc2ccco2)(C(F)(F)F)O1 (stereo not drawn) | 3.79 | –
19 | O=C1Nc2ccc(Cl)cc2C(OCC=C(Cl)Cl)(C(F)(F)F)O1 (stereo not drawn) | 9.5 | 242
20 | O=C1Nc2ccc(Cl)cc2C(OCc2ccccc2)(C(F)(F)F)O1 (stereo not drawn) | 17.9 | –
21 | O=C1Nc2ccc(F)cc2C(C#Cc2ccoc2)(C(F)(F)F)O1 (stereo not drawn) | 2.52 | 369
22 | O=C1Nc2ccc(Cl)cc2C(OCC(F)(F)C(F)(F)F)(C(F)(F)F)O1 (stereo not drawn) | 651 | –

Row | SMILES | IC90 [1] [nM] | IC90 [2] [nM]
23 | CC(C)=CCOC1(C(F)(F)F)OC(=O)Nc2ccc(Cl)cc21 (stereo not drawn) | 2.68 | 83
24 | O=C1Nc2ccc(Cl)cc2C(OCCc2ccccc2)(C(F)(F)F)O1 (stereo not drawn) | 167 | –
25 | C=CCOC1(C(F)(F)F)OC(=O)Nc2ccc(F)c(F)c21 (stereo not drawn) | 6.47 | 1620
26 | O=C1Nc2ccc(Cl)cc2C(C#Cc2ccccn2)(C(F)(F)F)O1 (stereo not drawn) | 5.39 | 1110
27 | O=C1Nc2ccc(F)cc2C(OCC=C(Cl)Cl)(C(F)(F)F)O1 (stereo not drawn) | 11.9 | –
28 | C/C=C\COC1(C(F)(F)F)OC(=O)Nc2ccc(Cl)cc21 (stereo not drawn) | 4.35 | 237
29 | O=C1Nc2ccc(Cl)cc2C(C#Cc2ccncc2)(C(F)(F)F)O1 (stereo not drawn) | 102 | –
30 | O=C1Nc2ccc(Cl)cc2C(C#Cc2ccsc2)(C(F)(F)F)O1 (stereo not drawn) | 4.47 | 106
31 | CC(C)=CCOC1(C(F)(F)F)OC(=O)Nc2ccc(F)cc21 (stereo not drawn) | 2.98 | 107
32 | C/C=C/COC1(C(F)(F)F)OC(=O)Nc2ccc(Cl)cc21 (stereo not drawn) | 5.6 | 404
33 | O=C1Nc2ccc(F)c(F)c2C(C#Cc2ccsc2)(C(F)(F)F)O1 (stereo not drawn) | 2.34 | 139
34 | COCCOC1(C(F)(F)F)OC(=O)Nc2ccc(Cl)cc21 (stereo not drawn) | 61.4 | –
35 | CCOC1(C(F)(F)F)OC(=O)Nc2ccc(Cl)cc21 (stereo not drawn) | 18.3 | –
36 | O=C1Nc2ccc(F)cc2C(C#Cc2ccco2)(C(F)(F)F)O1 (stereo not drawn) | 2.58 | –
37 | O=C1Nc2ccc(F)cc2C(C#Cc2ccccn2)(C(F)(F)F)O1 (stereo not drawn) | 12.2 | –
38 | O=C1Nc2ccc(F)c(F)c2C(C#Cc2cccnc2)(C(F)(F)F)O1 (stereo not drawn) | 2.23 | 59.3
39 | O=C1Nc2ccc(Cl)cc2C(C#Cc2cncs2)(C(F)(F)F)O1 (stereo not drawn) | 6.69 | –
40 | O=C1Nc2ccc(F)cc2C(C#Cc2cccnc2)(C(F)(F)F)O1 (stereo not drawn) | 2.56 | 329
41 | O=C1Nc2ccc(F)c(F)c2C(OCC=C(Cl)Cl)(C(F)(F)F)O1 (stereo not drawn) | 6.35 | 183
42 | O=C1Nc2ccc(Cl)cc2C(OCC2CC2)(C(F)(F)F)O1 (stereo not drawn) | 7.7 | –
43 | CCCCOC1(C(F)(F)F)OC(=O)Nc2ccc(Cl)cc21 (stereo not drawn) | 10.2 | 989
44 | O=C1Nc2ccc(F)cc2C(C#Cc2ccsc2)(C(F)(F)F)O1 (stereo not drawn) | 2.55 | 193
